pIC50: −log10 of the molar value.

In this assay the test system is AGS cells (KRAS^G12D). Description: Detection of cell proliferation in vitro by MTT/MTS method (cell activity experiment). It is filed as cell-based. The conditions noted are these: Homo sapiens, AGS, 72 h, AGS cells; MTT/MTS; 3 days of drug treatment; read-out: AGS IC50. The procedure, abridged: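 After 3-day compound exposure (final DMSO 0.5%), viability of AGS (KRAS G12D) cells, plated 1000/well one day before dosing, was measured at 490 nm following 4 h MTT or MTS incubation. IC50 was fitted from dose–effect curves relative to DMSO-treated wells.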
Take `CCC1COc2cc(O)cc(-c3ncc4c(N5C[C@H]6CC[C@@H](C5)N6)nc(OC[C@@]56CCCN5C[C@H](F)C6)nc4c3F)c21` (stereo partly drawn) [Example 243, 4-(4-((1R,5S)-3,8-diazabicyclo[3.2.1]octan-3-yl)-8-fluoro-2-(((2R,7aS)-2-fluorotetrahydro-1H-pyrrolizin-7a(5H)-yl)methoxy)pyrido[4,3-d]pyrimidin-7-yl)-3-ethyl-2,3-dihydrobenzofuran-6-ol]: the pIC50 is 7.74. For the molecule `CCc1coc2cc(O)cc(-c3ncc4c(N5C[C@H]6CC[C@@H](C5)N6)nc(OC[C@@]56CCCN5C[C@H](F)C6)nc4c3F)c12` [Example 244, 4-(4-((1R,5S)-3,8-diazabicyclo[3.2.1]octan-3-yl)-8-fluoro-2-(((2R,7aS)-2-fluorotetrahydro-1H-pyrrolizin-7a(5H)-yl)methoxy)pyrido[4,3-d]pyrimidin-7-yl)-3-ethylbenzofuran-6-ol], the pIC50 is 7.23. The result for `Oc1cc(-c2ncc3c(N4C[C@H]5CC[C@@H](C4)N5)nc(OC[C@@]45CCCN4C[C@H](F)C5)nc3c2F)c2c(c1)C1CC1C2` (stereo partly drawn) [Example 245, 5-(4-((1R,5S)-3,8-diazabicyclo[3.2.1]octan-3-yl)-8-fluoro-2-(((2R,7aS)-2-fluorotetrahydro-1H-pyrrolizin-7a(5H)-yl)methoxy)pyrido[4,3-d]pyrimidin-7-yl)-1,1a,6,6a-tetrahydrocyclopropa[a]inden-3-ol] reads 7.60; that for `Oc1cc2c(c(-c3ncc4c(N5C[C@H]6CC[C@@H](C5)N6)nc(OC[C@@]56CCCN5C[C@H](F)C6)nc4c3F)c1)C1CC1CC2` (stereo partly drawn) [Example 246, 7-(4-((1R,5S)-3,8-diazabicyclo[3.2.1]octan-3-yl)-8-fluoro-2-(((2R,7aS)-2-fluorotetrahydro-1H-pyrrolizin-7a(5H)-yl)methoxy)pyrido[4,3-d]pyrimidin-7-yl)-1a,2,3,7b-tetrahydro-1H-cyclopropa[a]naphthalen-5-ol], 6.96.

Consider `C#CC1CCc2cc(O)cc(-c3ncc4c(N5C[C@H]6CC[C@@H](C5)N6)nc(OC[C@@]56CCCN5C[C@H](F)C6)nc4c3F)c21` (stereo partly drawn) [Example 247, 7-(4-((1R,5S)-3,8-diazabicyclo[3.2.1]octan-3-yl)-8-fluoro-2-(((2R,7aS)-2-fluorotetrahydro-1H-pyrrolizin-7a(5H)-yl)methoxy)pyrido[4,3-d]pyrimidin-7-yl)-1-ethynyl-2,3-dihydro-1H-inden-5-ol], for which the pIC50 is 8.21. In the case of `C#CC1CCCc2cc(O)cc(-c3ncc4c(N5C[C@H]6CC[C@@H](C5)N6)nc(OC[C@@]56CCCN5C[C@H](F)C6)nc4c3F)c21` (stereo partly drawn) [Example 248, 4-(4-((1R,5S)-3,8-diazabicyclo[3.2.1]octan-3-yl)-8-fluoro-2-(((2R,7aS)-2-fluorotetrahydro-1H-pyrrolizin-7a(5H)-yl)methoxy)pyrido[4,3-d]pyrimidin-7-yl)-5-ethynyl-5,6,7,8-tetrahydronaphthalen-2-ol] it was 8.17; in that of `O=C1CCCc2cc(O)cc(-c3ncc4c(N5C[C@H]6CC[C@@H](C5)N6)nc(OC[C@@]56CCCN5C[C@H](F)C6)nc4c3F)c21` [Example 249, 8-(4-((1R,5S)-3,8-diazabicyclo[3.2.1]octan-3-yl)-8-fluoro-2-(((2R,7aS)-2-fluorotetrahydro-1H-pyrrolizin-7a(5H)-yl)methoxy)pyrido[4,3-d]pyrimidin-7-yl)-6-hydroxy-3,4-dihydronaphthalen-1(2H)-one], less than 5.60. Turning to `O=C1CCc2cc(O)cc(-c3ncc4c(N5C[C@H]6CC[C@@H](C5)N6)nc(OC[C@@]56CCCN5C[C@H](F)C6)nc4c3F)c21` [Example 250, 7-(4-((1R,5S)-3,8-diazabicyclo[3.2.1]octan-3-yl)-8-fluoro-2-(((2R,7aS)-2-fluorotetrahydro-1H-pyrrolizin-7a(5H)-yl)methoxy)pyrido[4,3-d]pyrimidin-7-yl)-5-hydroxy-2,3-dihydro-1H-inden-1-one], the pIC50 is less than 5.60. Take `[O-][S+]1CCCc2cc(O)cc(-c3ncc4c(N5C[C@H]6CC[C@@H](C5)N6)nc(OC[C@@]56CCCN5C[C@H](F)C6)nc4c3F)c21` (stereo partly drawn) [Example 251, 8-(4-((1R,5S)-3,8-diazabicyclo[3.2.1]octan-3-yl)-8-fluoro-2-(((2R,7aS)-2-fluorotetrahydro-1H-pyrrolizin-7a(5H)-yl)methoxy)pyrido[4,3-d]pyrimidin-7-yl)-6-hydroxythiochromane 1-oxide]: the pIC50 was less than 5.60. In the case of `[O-][S+]1CCc2cc(O)cc(-c3ncc4c(N5C[C@H]6CC[C@@H](C5)N6)nc(OC[C@@]56CCCN5C[C@H](F)C6)nc4c3F)c21` (stereo partly drawn) [Example 252, 7-(4-((1R,5S)-3,8-diazabicyclo[3.2.1]octan-3-yl)-8-fluoro-2-(((2R,7aS)-2-fluorotetrahydro-1H-pyrrolizin-7a(5H)-yl)methoxy)pyrido[4,3-d]pyrimidin-7-yl)-5-hydroxy-2,3-dihydrobenzo[b]thiophene 1-oxide], the pIC50 was less than 5.60. As for `C=C1CCCc2cc(O)cc(-c3ncc4c(N5C[C@H]6CC[C@@H](C5)N6)nc(OC[C@@]56CCCN5C[C@H](F)C6)nc4c3F)c21` [Example 253, 4-(4-((1R,5S)-3,8-diazabicyclo[3.2.1]octan-3-yl)-8-fluoro-2-(((2R,7aS)-2-fluorotetrahydro-1H-pyrrolizin-7a(5H)-yl)methoxy)pyrido[4,3-d]pyrimidin-7-yl)-5-methylene-5,6,7,8-tetrahydronaphthalen-2-ol], the pIC50 was 7.38. Turning to `CC1(C)CCCc2cc(O)cc(-c3ncc4c(N5C[C@H]6CC[C@@H](C5)N6)nc(OC[C@@]56CCCN5C[C@H](F)C6)nc4c3F)c21` [Example 254, 4-(4-((1R,5S)-3,8-diazabicyclo[3.2.1]octan-3-yl)-8-fluoro-2-(((2R,7aS)-2-fluorotetrahydro-1H-pyrrolizin-7a(5H)-yl)methoxy)pyrido[4,3-d]pyrimidin-7-yl)-5,5-dimethyl-5,6,7,8-tetrahydronaphthalen-2-ol], the pIC50 is 6.34.

As for `Oc1cc2c(c(-c3ncc4c(N5C[C@H]6CC[C@@H](C5)N6)nc(OC[C@@]56CCCN5C[C@H](F)C6)nc4c3F)c1)C1(CC2)CC1` [Example 255, 7′-(4-((1R,5S)-3,8-diazabicyclo[3.2.1]octan-3-yl)-8-fluoro-2-(((2R,7aS)-2-fluorotetrahydro-1H-pyrrolizin-7a(5H)-yl)methoxy)pyrido[4,3-d]pyrimidin-7-yl)-2′,3′-dihydrospiro[cyclopropane-1,1′-inden]-5′-ol], the pIC50 is 6.80. Consider `Oc1cc2c(c(-c3ncc4c(N5C[C@H]6CC[C@@H](C5)N6)nc(OC[C@@]56CCCN5C[C@H](F)C6)nc4c3F)c1)C1(CCC2)CC1` [Example 256, 8′-(4-((1R,5S)-3,8-diazabicyclo[3.2.1]octan-3-yl)-8-fluoro-2-(((2R,7aS)-2-fluorotetrahydro-1H-pyrrolizin-7a(5H)-yl)methoxy)pyrido[4,3-d]pyrimidin-7-yl)-3′,4′-dihydro-2′H-spiro[cyclopropane-1,1′-naphthalen]-6′-ol], for which the pIC50 was 6.52. On to `Oc1cc2c(c(-c3ncc4c(N5C[C@H]6CC[C@@H](C5)N6)nc(OC[C@@]56CCCN5C[C@H](F)C6)nc4c3F)c1)C(CC(F)(F)F)CC2` (stereo partly drawn) [Example 257, 7-(4-((1R,5S)-3,8-diazabicyclo[3.2.1]octan-3-yl)-8-fluoro-2-(((2R,7aS)-2-fluorotetrahydro-1H-pyrrolizin-7a(5H)-yl)methoxy)pyrido[4,3-d]pyrimidin-7-yl)-1-(2,2,2-trifluoroethyl)-2,3-dihydro-1H-inden-5-ol], for which the negative-log IC50 (pIC50) was 5.73.

By pIC50 is commonly meant the negative decadic logarithm of the IC50, by convention in mol/L.
